For this experiment, the target named is BCL6 (Homo sapiens (Human), UniProt P41182). As to the kind of experiment: assays described in the Examples section (not specified which). Conditions: tested compounds outside desired/preferred activity. The protocol: DC50 values (compound concentration at which 50% of endogenous BCL6 protein is degraded) were determined in SUDHL-4 cells (American Type Culture Collection) in an immunofluorescence-based assay using an InCell2200 high content imaging system (GE Healthcare). Briefly, 40 μL of lymphoma suspension cells cultured in RPMI 1640-10% FBS (Sigma-Aldrich or PAN Biotech UK Ltd) were platted on fibronectin (Sigma catalogue F1141)-coated 384 well Cell Carrier Ultra plate (Perkin Elmer catalogue 6057300) at 1.2 104 cells/well. After 20 hours cell culture at 37° C./C02 incubator, compounds were dispensed in the cell culture plate using ECHO550 acoustic dispenser (Labcyte, Inc.), as 8 point-concentration response (ranging from 5 nM to 10 μM) in 0.67% final DMSO concentration. Cells were incubated with compound for 2 hours at 37° C./C02 incubator followed by fixation in 4.5% formaldehyde (37% formaldehyde solution, Sigma catalogue F8775) at room temperature for 15 min. After fixing, cells were washed in 1×TBS (Tris Buffer Saline) using a Power Washer 384 (Tecan Group Ltd). Blocking and cell permeabilisation were performed by incubating the fixed cells for 1 hour at room temperature in 1×TBS, 5% BSA, 1% Triton X100, followed by three washes on PW384 plate washer. Primary and secondary antibodies were prepared in 1×TBS, 1% BSA, 0.2% Triton X100. BCL6 expression was detected by incubating the cells for 1 h30 with BCL6 rabbit polyclonal antibody (Sigma Catalogue HPA004899) at 1:250, 0.8 μg/ml, followed by 1 hour in chicken anti-Rabbit Alexa 488 conjugated antibody (Life Technology) at 1:500. After incubation in each antibody, cells were washes four times in 1×TBS-0.05% tween on PW384 plate washer. Cells were finally incubated for 60 min with nuclear staining RedDot2 dye (Biotium) at 0.5× the stock concentration in 1×TBS. BCL6 expression in the absence or presence of compound was detected on InCell2200 with 20× objective and quantified on InCell Analyser 3.7.2 workstation (GE Healthcare). The % response at each concentration was calculated by normalising BCL6 expression in the presence of compound to the appropriate high (DMSO) and low (DMSO with 7 μM CCT369260) controls.
The volume of medium containing 2000 cells in the control well was calculated and this volume of cells was transferred from every well of the assay plates to the corresponding well of the fresh plates containing compound. After 14 days, CellTiter Glo reagent (Promega) was added to the medium in each well of the assay plate at a ratio of 1:2, mixed on a plate shaker, then incubated at room temperature for 10 minutes. Luminescence was measured using an Envision plate reader (Perkin Elmer) and the relative luminescence at each compound concentration, compared to DMSO alone, was calculated. IC50 were determined using a 4-parameter curve fit in Dotmatics (Bishops Stortford, UK).

With `CNC(=O)CNc1cc(=O)[nH]c2ccc(Nc3ccnc(Cl)c3C#N)cc12` [2-((6-((2-chloro-3-cyanopyridin-4-yl)amino)-2-oxo-1,2-dihydroquinolin-4-yl)amino)-N-methylacetamide], the “activity in the assays described in the Examples section” value (“activity in the assays described” for short) is listed as “did not exhibit the desired activity”.

Turning to `CCNc1cc(=O)n(C)c2ccc(Nc3ccnc(Cl)c3C#N)nc12` [2-chloro-4-((8-(ethylamino)-5-methyl-6-oxo-5,6-dihydro-1,5-naphthyridin-2-yl)amino)nicotinonitrile], the “activity in the assays described” value is “not to exhibit the preferred activity”.

In the case of `CC(CN(C)C)Nc1cc(=O)n(C)c2ccc(Nc3ccnc(Cl)c3C#N)cc12` (centres unmarked) [2-chloro-4-((4-((1-(dimethylamino)propan-2-yl)amino)-1-methyl-2-oxo-1,2-dihydroquinolin-6-yl)amino)nicotinonitrile], the “activity in the assays described” value is given as “did not exhibit the desired activity”.

Regarding `CC(Nc1cc(=O)n(C)c2ccc(Nc3nc(N4C[C@H](C)C[C@H](C)C4)nc(C(F)(F)F)c3Cl)cc12)c1ncccn1` (stereo partly drawn) [6-((5-chloro-2-((3S,5R)-3,5-dimethylpiperidin-1-yl)-6-(trifluoromethyl)pyrimidin-4-yl)amino)-1-methyl-4-((1-(pyrimidin-2-yl)ethyl)amino)quinolin-2(1H)-one], the “activity in the assays described” value is reported as “not to exhibit the preferred activity”.

Consider `CC(Nc1cc(=O)[nH]c2ccc(Nc3ccnc(Cl)c3C#N)cc12)c1cnn(C)c1` (centres unmarked) [2-chloro-4-((4-((1-(1-methyl-1H-pyrazol-4-yl)ethyl)amino)-2-oxo-1,2-dihydroquinolin-6-yl)amino)nicotinonitrile], for which the “activity in the assays described” value is “did not exhibit the desired activity”.

On to `Cn1c(=O)cc(NCc2ncccn2)c2cc(Nc3ccnc(Cl)c3C#N)ccc21` [2-chloro-4-[[1-methyl-2-oxo-4-(pyrimidin-2-ylmethylamino)-6-quinolyl]amino]pyridine-3-carbonitrile], for which the “activity in the assays described” value was “not to exhibit the preferred activity”.

`Cn1c(=O)cc(NC2CCCNC2=O)c2cc(Nc3ccnc(Cl)c3C#N)ccc21` (centres unmarked) [2-chloro-4-((1-methyl-2-oxo-4-((2-oxopiperidin-3-yl)amino)-1,2-dihydroquinolin-6-yl)amino)nicotinonitrile]: the “activity in the assays described” value is given as “did not exhibit the desired activity”.

As for `CN1CCC(Nc2cc(=O)n(C)c3ccc(Nc4ccnc(Cl)c4C#N)cc23)C1=O` (centres unmarked) [2-chloro-4-((1-methyl-4-((1-methyl-2-oxopyrrolidin-3-yl)amino)-2-oxo-1,2-dihydroquinolin-6-yl)amino)nicotinonitrile], the “activity in the assays described” value is recorded as “not to exhibit the preferred activity”.

Source of the values: patent publication US11161839B2, “2-quinolone derived inhibitors of BCL6” (Cancer Research Technology Limited, priority 2017, dated 2021).
